Results reported in a melting point compilation (Tetko et al.; mined from patent text by program, amines drawn as free bases though some values may be those of a salt).

SMILES | melting point
COc1c(O)ccc(C=O)c1[N+](=O)[O-] | 136 to 137 °C
CCOC(=O)c1cn(C2CC2)c2c(F)c(N3CC(O)C3)c(F)cc2c1=O | 260 to 270 °C
COC(=O)c1ccc(Oc2ccc(NC(=O)c3ccc([N+](=O)[O-])cc3Br)cc2NC(=O)c2ccc([N+](=O)[O-])cc2Br)cc1C(=O)OC | 138 to 142 °C
N#CC(CBr)c1ccccc1 (stereo not given) | 63 °C
Nc1ccc(C(c2cccc(N)c2)(C(F)(F)F)C(F)(F)F)cc1 | 142 to 143 °C
CN1CCC(=C2c3cc(Br)n(C)c3CCn3ccnc32)CC1 | 179 °C
CC(C)CC[C@H](O)[C@H](CC1CCCCC1)NC(=O)[C@H](Cc1c[nH]cn1)NC(=O)OC(C)(C)C | 96 to 100 °C
CC(=O)CC(=O)c1cc(Cl)c(Cl)cc1O | 134 to 135 °C
Cc1oc2c(C)c(C)c(NC(=O)c3ccc(F)cc3)c(C)c2c1-c1ccc(F)cc1 | 232 to 234 °C
O=C(O)c1ccc(S(=O)(=O)Oc2ccc(-c3ccc(-c4c(C(=O)c5ccccc5)oc5ccccc45)cc3)cc2[N+](=O)[O-])cc1O | 105 to 107 °C
O=C(Oc1c(Br)c(Br)c(Br)c(Br)c1Br)c1ccccc1CCl | 201 to 205 °C
COC(=O)OCC(COC(=O)OC)OCn1cnc2c(=O)[nH]c(N)nc21 | 204 to 206 °C
CC(C)(C)OC(=O)NC1CN(c2c(F)cc3c(=O)c(C(=O)O)cn(C4CC4)c3c2Cl)CC12CC2 (stereo not given) | 205 to 207 °C
CSc1c2c3c(cccc3n1C)C1C=C(C)CN(C)C1C2 (stereo not given) | 115 to 116 °C
C[C@@H](CN1CCc2ccc3c(c21)CCS3)NC(=O)OC(C)(C)C | 170 to 172 °C
NC(=O)C1(N2CCCCC2)CCN(Cc2ccccc2)CC1 | 150 to 160 °C
Clc1nc2cc(Cl)c(Cl)c(Cl)c2[nH]1 | 243 to 244 °C
CC(C)Nc1ccc([N+](=O)[O-])cc1C(=O)c1ccccc1 | 155 °C
O=C(NCCCCN1CCC(c2ccc3c(c2O)CCCC3)CC1)c1ccc(-c2ccc(C(F)(F)F)cc2)cc1 | 220 to 222 °C
CS(=O)(=O)c1ccc(C(CC2CCCC2)c2nc(Br)c(C(=O)C3CC3)[nH]2)cc1 (stereo not given) | 160 to 161 °C
COc1c(CC#N)c2c(c3c1OC(C)(C)C3)C(c1cccc(C(=O)NC3CCCCNC3=O)c1)=NC(C)(C)C2 (stereo not given) | 130 to 132 °C
CCC(CC)(COc1nn2nc(C)nc2cc1C)CS(N)(=O)=O | 221 to 222 °C
ClCCOc1ccc(OCCCl)c(Cl)c1 | 135 to 137 °C
OC(CCc1ccc2c(c1)OCO2)C1CC1 (stereo not given) | 64 to 65 °C
C[C@@H]1N(c2ccc(C#N)c(Cl)c2)C(=O)C[C@@]1(O)C1CC1 | 93 to 100 °C
CCCOC(=O)c1sc(C(=O)OCCC)c(OS(=O)(=O)c2ccc(Br)cc2)c1C | 73 to 74 °C
COc1cc(N)c2nc(C)cc(C)c2c1OC | 108 to 110 °C
COC1=C(OC)C(=O)C(CO)=C(C)C1=O | 52 to 54 °C
COC1c2c(ccc3cnn(CC(C)N)c23)OCC1O (stereo not given) | 105 to 108 °C
CSc1ccc(NC(=N)c2ccc(C(F)(F)F)cc2)cc1 | 144 to 146 °C

Other lines, results leading:

melting point | SMILES
231 to 232 °C | COc1ccc(Oc2cccc3ncnc(NC(=O)Nc4ccccc4)c23)cc1
52 to 52.5 °C | CCOC(=O)c1ccc(OCC(O)CC)cc1 (stereo not given)
114 to 116 °C | CS(=O)(=O)NCCc1ccncc1
140 to 141 °C | CN(C)c1nccc(-c2ccc(-c3ccc(N(c4ccccc4)c4ccccc4)cc3)cc2)n1
258 to 260 °C | Cc1cc(=O)c(OCc2ccccc2)c(C(=O)NC2CCCCC2)n1C
180 to 183 °C | Cn1nc(-c2ccnc(N[C@H]3CC[C@H](O)CC3)n2)c2ccccc21
311 to 313 °C | O=C1NC(=O)c2c1c(-c1ccccc1Cl)cc1sc3ccc(O)cc3c21
160 to 162 °C | COc1ccc2c(c1)S(=O)(=O)N=CN2CCO
100 °C | O=CC1CC(n2ccc(=O)[nH]c2=O)OC1COC(c1ccccc1)(c1ccccc1)c1ccccc1 (stereo not given)
168 to 173 °C | CC(C)(C)NC(=O)c1cnc(Cl)cc1-c1ccc(F)cc1
65 to 75 °C | COc1ccc(CCc2oc3ccc(Br)cc3c2CO)cc1
225 to 227 °C | C#Cc1cccc(Nc2ncnc3[nH]cc(-c4ccc(Cl)cc4)c23)c1
106 to 110 °C | Cc1occc(=O)c1OC(=O)c1ccccc1
70 °C | COc1ccccc1C(=O)C=Cc1ccncc1
168 to 170 °C | COc1ccc(C(C)C)cc1-c1cc(C(=O)NC2CCN(C(=O)OC(C)(C)C)CC2)c(OCc2ccccc2)cc1OCc1ccccc1
123 to 124 °C | COc1ccc(C2CC(=O)N(C(=O)Nc3ccc(F)cc3)N2C)cc1OC1CCCC1 (stereo not given)
235 to 238 °C | Cc1ccc(-c2noc3c(Cl)c(OCC(=O)O)ccc23)s1
215 to 217 °C | OCCCNC1=Nc2ccccc2C1(O)c1ccccc1 (stereo not given)
121 to 123 °C | Cn1c(CCNC(=O)OCc2ccccc2)nc(-c2ccncn2)cc1=O
123 to 126 °C | O=C1c2ccc([N+](=O)[O-])cc2COc2cc(-n3cnnn3)ccc21

melting point | SMILES
129 to 130 °C | c1ccc(CN2CCC(CCc3noc4cc(N5CCOCC5)ccc34)CC2)cc1
164 °C | O=C1OC(c2ccccc2)=NC1=Cc1cccnc1
70 to 73 °C | COc1ccc([C@@H]2[C@@H](CCCBr)C(=O)N2c2ccc(OC)cc2)cc1
155 to 156 °C | CCc1cc2c(-c3ccccc3Cl)c(C(=O)O)c(=O)n(C)c2s1
270 to 272 °C | COC(=O)c1cc2ccc(C(=O)O)cc2[nH]1
216 to 217 °C | COC(=O)c1cc(C(=O)NCCF)c2cc(Cc3ccc(F)cc3)cnc2c1O
226 to 228 °C | CCCn1c(=O)cc(N)n(-c2ccccc2C)c1=O
145 to 148 °C | O=C1c2cc3nnn(CCCc4cccc(F)c4)c(=O)c3cc2OC2CCCN12 (stereo not given)
158 to 160 °C | COC(=O)c1ccc(Cc2cn(C/C=C/c3ccc4ccc(Cl)cc4n3)c3ccc([N+](=O)[O-])cc23)c(OC)c1
234 to 236 °C | COc1ccc(S(=O)(=O)N(Cc2cccnc2)c2c(C(=O)O)cnc3snc(C)c23)cc1
79 °C | CCCCCCCNC(=O)N(C)c1cccc(-c2ccc(C=C(C)C(=O)O)cc2)c1
81 to 82 °C | CCC(O)(CC)c1ccc(-c2cccc(OCc3ccc(CO)c(CO)c3)c2C)c(C)c1
171 to 173 °C | Nc1ccc2c(c1)C(=O)N(CCO)C2=O
84 to 85 °C | CCOCCCn1ccc(=O)c(OC(=O)NCC(=O)OCC)c1C
116 to 118 °C | CC(O)(C#Cc1ccc(C(=O)c2ccccn2)cc1)C(F)(F)F (stereo not given)
244 to 250 °C | N#CC(C(=O)Nc1ccccc1)C(=O)c1nn(-c2ccccc2)c2c1CSc1ccc(C(=O)NCC(=O)O)cc1-2 (stereo not given)
167 to 169 °C | Cn1c(CC#N)ccc1C(=O)c1ccc([N+](=O)[O-])cc1
117 to 119 °C | O=C(O)c1cc(Cl)ccc1C(O)=NCc1ccccc1
190 to 191 °C | COc1cc(COc2nn(-c3ccccc3)cc2C=C(C#N)C#N)ccc1OCc1nc(-c2ccco2)oc1C
191 to 192 °C | CSc1ccc(C(=O)Nc2cc(-c3c(-c4ccc(F)c(C)c4)nc4cccnn34)ccn2)cc1
